From PubChem BioAssay (NCI)
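Growth conditions: 96-well plates. Treatment: test compound, 48 hours, 5 concentrations. Analysis: linear interpolation between bracketing concentrations; unreached endpoints set to highest concentration. GI50: concentration for 50% inhibition of growth. The concentration for full growth arrest is given as TGI.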

Legend:
Test in all cases: inhibition of tumour cell growth, NCI panel, 48 h
SF-295 CNS = test system: SF-295 CNS
SN12C renal = test system: SN12C renal
NCI-H226 lung = test system: NCI-H226 lung
ACHN renal = test system: ACHN renal
HL-60(TB) leukemia = test system: HL-60(TB) leukemia
CCRF-CEM leukemia = test system: CCRF-CEM leukemia
MOLT-4 leukemia = test system: MOLT-4 leukemia
OVCAR-3 ovarian = test system: OVCAR-3 ovarian
HOP-92 NSCLC = test system: HOP-92 NSCLC
SK-MEL-5 melanoma = test system: SK-MEL-5 melanoma

Row | SMILES | GI50 (SF-295 CNS) | TGI (SF-295 CNS) | GI50 (SN12C renal) | TGI (SN12C renal) | GI50 (NCI-H226 lung) | TGI (NCI-H226 lung) | GI50 (ACHN renal) | TGI (ACHN renal) | GI50 (HL-60(TB) leukemia) | TGI (HL-60(TB) leukemia) | GI50 (CCRF-CEM leukemia) | TGI (CCRF-CEM leukemia) | GI50 (MOLT-4 leukemia) | TGI (MOLT-4 leukemia) | GI50 (OVCAR-3 ovarian) | TGI (OVCAR-3 ovarian) | TGI (HOP-92 NSCLC) | TGI (SK-MEL-5 melanoma) | GI50 (SK-MEL-5 melanoma) | GI50 (HOP-92 NSCLC)
1 | CSc1ccc(N(C)c2nc(C)nc3c2CCC3)cc1 | < 0.01 µM | 12.2 µM | < 0.01 µM | > 100 µM | < 0.01 µM | > 100 µM | < 0.01 µM | > 100 µM | < 0.01 µM | < 0.01 µM | < 0.01 µM | 94.7 µM | < 0.01 µM | 25.4 µM | < 0.01 µM | < 0.01 µM |  |  |  | 
2 | O=C(O)c1ccccc1C(=O)c1ccc2c(c1)Cc1ccccc1-2 |  | > 100 µM |  | > 100 µM |  | > 100 µM |  | > 100 µM |  |  |  |  |  | > 100 µM |  | > 100 µM | > 100 µM | > 100 µM |  | 
3 | CN1c2ccccc2SC2C(c3ccccc3)=NOC21 (centres undefined) |  | > 100 µM |  | > 100 µM |  | > 100 µM |  | > 100 µM |  | > 100 µM |  | > 100 µM |  | > 100 µM |  | > 100 µM |  |  |  | 
4 | Cc1ccc2oc(=O)c(-c3ccccc3)nc2c1 |  | > 100 µM |  | > 100 µM |  | > 100 µM |  | > 100 µM |  |  |  | > 100 µM |  | > 100 µM |  | > 100 µM |  | > 100 µM |  | 
5 | Cc1ccccc1/C=C/C(=O)c1ccccc1 |  |  |  | > 10 µM |  | 36.7 µM |  | 32.8 µM |  |  |  | 69.3 µM |  | 60.7 µM |  | 31 µM | 37.6 µM | > 10 µM |  | 
6 | O=C1c2ccccc2-c2c1c1ccccc1c(=O)n2CCNCCn1c2c(c3ccccc3c1=O)C(=O)c1ccccc1-2 | > 25 µM | > 25 µM | > 25 µM | > 25 µM | > 25 µM | > 25 µM | > 25 µM | > 25 µM |  |  |  |  | 4.84 µM | 12.8 µM | > 25 µM | > 25 µM |  | > 25 µM | > 25 µM | 
7 | O=C(c1cccs1)C1NO[N+]([O-])=C1c1cccs1 (centres undefined) | 6.07 µM | 12.4 µM | 9.49 µM | 21.8 µM | 9.9 µM | > 35.2 µM | 1.85 µM | 3.56 µM |  |  | 1.23 µM | 3.54 µM | 2.86 µM | 9.19 µM | 1.79 µM | 3.2 µM | 3.59 µM | 31 µM | 16.2 µM | 1.65 µM
8 | c1ccc(-c2nc(N3CCCNCC3)c3nc(-c4ccccc4)oc3n2)cc1 | 1.81 µM | 3.25 µM | 1.74 µM | 3.38 µM |  |  | 1.71 µM | 3.11 µM | 1.83 µM | 3.55 µM |  |  |  |  | 1.75 µM | 3.21 µM |  | 3.18 µM | 1.77 µM | 
9 | O=C1/C(=C/c2cccc([N+](=O)[O-])c2)Sc2scc(-c3ccc([N+](=O)[O-])cc3)[n+]21 |  | 53.6 µM |  | 40.9 µM |  | > 100 µM |  | 49.9 µM |  |  |  |  |  | > 100 µM |  | > 100 µM | 72.3 µM | > 100 µM |  | 
10 | CC(=O)[CH-]C(=O)c1ccccc1.CC(=O)[CH-]C(=O)c1ccccc1.CC1(C)OCC(C2OC3OC(C)(C)OC3C2[O-])O1.CC[O-].[Ti+4] (centres undefined) | 17.1 µM | 31.6 µM | 15.6 µM | 33.1 µM | 15.2 µM | 30.1 µM | 17.3 µM | 35.8 µM |  |  | 4.71 µM | > 100 µM | 15.5 µM | 82.1 µM | 11.7 µM | 30.2 µM | 20.6 µM | 23.9 µM | 10.8 µM | 6.84 µM
11 | O=C(CC1(O)C(=O)Nc2c(Cl)ccc(Cl)c21)c1ccc(Cl)cc1Cl (centres undefined) |  | 41.6 µM |  | 30.5 µM |  | 30.5 µM |  | 30.5 µM |  |  |  |  |  |  |  | 30.9 µM | 49.6 µM |  |  | 
12 | C/C1=C\CC[C@@](C)(O)[C@@H]2C[C@H](CC/C(C)=C/CC1)C1(CC1)C(=O)O2 | 26.7 µM | 85.6 µM | 21.5 µM | 56.2 µM | 25.8 µM | 76.2 µM | 34.4 µM | > 100 µM | 15.4 µM | 33.4 µM | 76.1 µM | > 100 µM | 15.5 µM | 38.2 µM | 22 µM | 47.4 µM |  | 35 µM | 17.4 µM | 
13 | CC(C)(C)c1ccc(OC2CCO2)cc1 (centres undefined) |  | > 100 µM |  | 38.1 µM |  | 92.8 µM |  | > 100 µM |  |  |  | 65 µM |  | 72.3 µM |  | > 100 µM | 82 µM | > 100 µM |  | 
14 | C=C1C2Oc3ccccc3C1N(c1ccccc1)O2 (centres undefined) |  | 62.7 µM |  | 88.1 µM |  | > 100 µM |  | > 100 µM |  | > 100 µM |  | 89.5 µM |  | > 100 µM |  | > 100 µM |  |  |  | 
15 | CC(C)(C)NCC(COc1ccc([N+](=O)[O-])cc1)OP(c1ccccc1)c1ccccc1 (centres undefined) |  | > 100 µM |  | > 100 µM |  | 94.7 µM |  | > 100 µM |  | 47.3 µM |  | 79.2 µM |  | 49.6 µM |  | > 100 µM |  | 37.3 µM |  | 
16 | CCCCCCCCCCCCCC[n+]1cccc(C(N)=O)c1 | 1.69 µM | 4.23 µM | 1.86 µM | 8.34 µM | 1.63 µM | 5.11 µM | 3.46 µM | 17.9 µM |  |  | 1.5 µM | 4.47 µM | 1.67 µM | 4.26 µM | 1.93 µM | 5.02 µM | 3.49 µM |  |  | 0.657 µM
